Activity data for one compound are collected here from ChEMBL document CHEMBL4311992, “Discovery of 3-(((9H-purin-6-yl)amino)methyl)-4,6-dimethylpyridin-2(1H)-one derivatives as novel tubulin polymerization inhibitors for treatment of cancer” (Eur J Med Chem, 2019).

SMILES strings stand for the structures. Activity calls are given as the source filed them. The rule behind the calls is not given here.

Series [1] addresses Macrophage colony-stimulating factor 1 receptor (Homo sapiens) (UniProt P07333). The series is described as follows: Inhibition of recombinant human FMS (538 to end residues) assessed as residual activity at 10 uM using KKKSPGEYVNIEFG as substrate measured after 40 mins in presence of [gamma33P]ATP by scintillation counting method.
The target of series [2] is Tyrosine-protein kinase receptor TYRO3 (Homo sapiens) (UniProt Q06418). The series is described as follows: Inhibition of human RSE (451 to end residues) using KVEKIGEGTYGVVYK as substrate measured after 40 mins in presence of [gamma33P]ATP by scintillation counting method. Details: scale not given: the % may be the effect or the level left.
Sequence of Tyrosine-protein kinase receptor TYRO3 (Homo sapiens) (Q06418 whole entry): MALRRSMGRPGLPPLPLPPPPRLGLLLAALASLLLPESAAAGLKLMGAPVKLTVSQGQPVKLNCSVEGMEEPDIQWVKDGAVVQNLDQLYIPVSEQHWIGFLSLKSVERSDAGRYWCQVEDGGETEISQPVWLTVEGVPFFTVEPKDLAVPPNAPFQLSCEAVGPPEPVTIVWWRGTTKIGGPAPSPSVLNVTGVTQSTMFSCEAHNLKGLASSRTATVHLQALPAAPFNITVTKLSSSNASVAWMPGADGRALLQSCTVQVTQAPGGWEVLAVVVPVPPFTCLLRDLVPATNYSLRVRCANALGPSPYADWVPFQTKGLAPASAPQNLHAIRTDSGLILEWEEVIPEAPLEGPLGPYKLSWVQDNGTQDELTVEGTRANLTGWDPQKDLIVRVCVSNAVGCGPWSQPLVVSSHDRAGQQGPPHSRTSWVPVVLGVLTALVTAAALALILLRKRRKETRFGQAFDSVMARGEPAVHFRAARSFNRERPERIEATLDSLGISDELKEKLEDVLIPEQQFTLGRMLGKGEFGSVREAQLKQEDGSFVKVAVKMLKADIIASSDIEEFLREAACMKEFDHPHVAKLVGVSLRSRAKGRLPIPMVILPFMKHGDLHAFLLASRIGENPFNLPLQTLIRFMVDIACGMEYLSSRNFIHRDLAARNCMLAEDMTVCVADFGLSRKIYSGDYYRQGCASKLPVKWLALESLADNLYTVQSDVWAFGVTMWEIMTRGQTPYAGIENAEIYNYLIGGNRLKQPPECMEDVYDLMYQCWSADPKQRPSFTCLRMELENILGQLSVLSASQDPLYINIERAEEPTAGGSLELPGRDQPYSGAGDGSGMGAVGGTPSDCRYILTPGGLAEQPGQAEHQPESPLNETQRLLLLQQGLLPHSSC
Series [3] deals with Hepatocyte growth factor receptor (Homo sapiens), P08581 [M1250T]. Put plainly: Inhibition of recombinant human MET A1209G/V1290L/M1268T mutant (974 to end residues) assessed as residual activity at 10 uM using KKKGQEEEYVFIE as substrate measured after 40 mins in presence of [gamma33P]ATP by scintillation counting method.
Series [4] has as its target Protein kinase C delta type (Homo sapiens) (UniProt Q05655). The series is described as follows: Inhibition of recombinant human PKCdelta (2 to end residues) assessed as residual activity at 10 uM using ERMRPRKRQGSVRRRV as substrate measured after 40 mins in presence of [gamma33P]ATP by scintillation counting method.
Series [5] deals with HCT-116. Put plainly: Induction of apoptosis in human HCT116 cells assessed as increase in Bax expression up to 200 nM measured after 48 hrs by Western blot analysis. It counts as functional, cell-based.
In series [6] the target is Dual specificity protein kinase CLK2 (Homo sapiens) (UniProt P49760). Put plainly: Inhibition of recombinant human CLK2 (138 to end residues) assessed as residual activity at 10 uM using YRRAAVPPSPSLSRHSSPHQS(p)EDEEE as substrate measured after 40 mins in presence of [gamma33P]ATP by scintillation counting method.
The target in series [7] is Mitogen-activated protein kinase kinase kinase kinase 4 (Homo sapiens) (UniProt O95819). Put plainly: Inhibition of recombinant human MAP4K4 (1 to 328 residues) assessed as residual activity at 10 uM using RLGRDKYKTLRQIRQ as substrate measured after 40 mins in presence of [gamma33P]ATP by scintillation counting method.
Series [8] has as its target Serine/threonine-protein kinase Nek6 (Homo sapiens) (UniProt Q9HC98). The series is described as follows: Inhibition of recombinant human NEK6 (2 to end residues) assessed as residual activity at 10 uM using FLAKSFGSPNRAYKK as substrate measured after 40 mins in presence of [gamma33P]ATP by scintillation counting method.
Series [9] is described as follows: Toxicity in nude BALB/c mouse assessed as change in cholesterol level at 40 to 80 mg/kg, po once daily for 4 weeks measured post-last dose. It is filed as organism-based. The settings on record: in vivo, 672 h.
The target of series [10] is Mitogen-activated protein kinase kinase kinase kinase 1 (Homo sapiens) (UniProt Q92918). Put plainly: Inhibition of recombinant human HPK1 (1 to 346 residues) assessed as residual activity at 10 uM using myelin basic protein as substrate measured after 40 mins in presence of [gamma33P]ATP by scintillation counting method.
Series [11] addresses Serine/threonine-protein kinase 17B (Homo sapiens) (UniProt O94768). Put plainly: Inhibition of recombinant full-length human DRAK2 assessed as residual activity at 10 uM using KKRPQRRYSNVF as substrate measured after 120 mins in presence of [gamma33P]ATP by scintillation counting method.
Series [12] deals with Mitogen-activated protein kinase kinase kinase kinase 3 (Homo sapiens) (UniProt Q8IVH8). Put plainly: Inhibition of recombinant human MAP4K3 (1 to 291 residues) assessed as residual activity at 10 uM using RLGRDKYKTLRQIRQ as substrate measured after 40 mins in presence of [gamma33P]ATP by scintillation counting method.
Sequence of Mitogen-activated protein kinase kinase kinase kinase 3 (Homo sapiens) (Q8IVH8 whole entry, the tested form may be a part): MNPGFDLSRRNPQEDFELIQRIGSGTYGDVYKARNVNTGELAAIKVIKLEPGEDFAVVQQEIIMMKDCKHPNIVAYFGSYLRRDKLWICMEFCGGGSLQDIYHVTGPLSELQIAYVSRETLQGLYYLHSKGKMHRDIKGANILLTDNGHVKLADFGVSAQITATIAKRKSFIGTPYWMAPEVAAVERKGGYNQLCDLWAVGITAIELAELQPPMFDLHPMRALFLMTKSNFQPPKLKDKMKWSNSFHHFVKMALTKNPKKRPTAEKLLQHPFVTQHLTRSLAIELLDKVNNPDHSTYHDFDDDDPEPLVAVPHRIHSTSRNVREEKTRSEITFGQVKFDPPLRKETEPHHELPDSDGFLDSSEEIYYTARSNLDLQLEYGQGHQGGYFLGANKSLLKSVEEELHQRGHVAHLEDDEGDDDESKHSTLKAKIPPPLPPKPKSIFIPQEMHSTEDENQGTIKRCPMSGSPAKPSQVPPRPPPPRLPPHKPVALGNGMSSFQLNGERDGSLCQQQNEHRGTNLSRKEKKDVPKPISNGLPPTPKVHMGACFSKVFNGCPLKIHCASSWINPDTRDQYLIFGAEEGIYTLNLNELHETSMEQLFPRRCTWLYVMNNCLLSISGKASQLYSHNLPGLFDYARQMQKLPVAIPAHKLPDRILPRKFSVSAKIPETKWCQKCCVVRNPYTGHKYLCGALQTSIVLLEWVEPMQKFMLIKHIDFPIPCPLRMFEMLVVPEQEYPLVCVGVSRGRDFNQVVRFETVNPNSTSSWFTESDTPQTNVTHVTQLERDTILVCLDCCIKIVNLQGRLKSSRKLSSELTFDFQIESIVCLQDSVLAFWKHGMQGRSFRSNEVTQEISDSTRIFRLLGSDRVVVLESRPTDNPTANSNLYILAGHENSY
Series [13] has as its target Serine/threonine-protein kinase VRK1 (Homo sapiens) (UniProt Q99986). Put plainly: Inhibition of human VRK1 assessed as residual activity at 10 uM by radiometric method.
The test system of series [14] is Hepatocyte growth factor receptor (Homo sapiens), P08581 [D1228H]. The series is described as follows: Inhibition of recombinant human MET A1209G/V1290L/D1246H mutant (974 to end residues) assessed as residual activity at 10 uM using KKKGQEEEYVFIE as substrate measured after 40 mins in presence of [gamma33P]ATP by scintillation counting method.
The test system of series [15] is Discoidin domain-containing receptor 2 (Homo sapiens), Q16832 [UNDEFINED MUTATION]. Put plainly: Inhibition of recombinant human DDR2 S642A mutant (467 to end residues) assessed as residual activity at 10 uM using KKSRGDYMTMQIG as substrate measured after 40 mins in presence of [gamma33P]ATP by scintillation counting method.
Sequence of Discoidin domain-containing receptor 2 (Homo sapiens), Q16832 [UNDEFINED MUTATION] (Q16832 whole entry, looked up, stated change not applied, the tested form may be a part): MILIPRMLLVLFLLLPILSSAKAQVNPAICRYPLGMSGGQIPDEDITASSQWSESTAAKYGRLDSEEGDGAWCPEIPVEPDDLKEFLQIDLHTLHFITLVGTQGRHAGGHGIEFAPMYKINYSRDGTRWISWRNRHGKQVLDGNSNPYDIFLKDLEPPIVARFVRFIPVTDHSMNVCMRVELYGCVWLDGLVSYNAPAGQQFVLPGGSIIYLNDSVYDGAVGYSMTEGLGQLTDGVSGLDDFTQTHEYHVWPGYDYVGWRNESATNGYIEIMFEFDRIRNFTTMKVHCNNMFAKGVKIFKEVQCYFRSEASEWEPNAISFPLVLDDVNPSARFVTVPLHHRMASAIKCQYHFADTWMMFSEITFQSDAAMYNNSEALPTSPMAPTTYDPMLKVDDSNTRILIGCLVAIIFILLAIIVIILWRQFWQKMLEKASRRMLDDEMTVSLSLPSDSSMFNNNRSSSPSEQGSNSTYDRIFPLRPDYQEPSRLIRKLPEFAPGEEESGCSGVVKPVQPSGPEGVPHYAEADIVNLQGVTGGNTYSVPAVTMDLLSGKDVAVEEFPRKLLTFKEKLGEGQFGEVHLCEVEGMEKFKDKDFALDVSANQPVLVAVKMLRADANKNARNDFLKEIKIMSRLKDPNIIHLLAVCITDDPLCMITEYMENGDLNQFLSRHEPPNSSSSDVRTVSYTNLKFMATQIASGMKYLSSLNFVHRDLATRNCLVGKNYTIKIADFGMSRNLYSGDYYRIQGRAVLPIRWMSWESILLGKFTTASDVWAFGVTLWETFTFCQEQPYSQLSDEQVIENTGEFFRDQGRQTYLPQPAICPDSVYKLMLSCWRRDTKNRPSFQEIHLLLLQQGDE
Series [16] addresses Serine/threonine-protein kinase SIK1 (Homo sapiens) (UniProt P57059). Put plainly: Inhibition of human SIK (1 to 281 residues) using AMARAASAAALARRR as substrate measured after 40 mins in presence of [gamma33P]ATP by scintillation counting method. Also on record: scale not given: the % may be the effect or the level left.
Series [17] concerns RAC-beta serine/threonine-protein kinase (Homo sapiens), P31751 [S474D]. The series is described as follows: Inhibition of recombinant full-length human PKBbeta S474D mutant (120 to end residues) assessed as residual activity at 10 uM using GRPRTSSFAEGKK as substrate measured after 40 mins in presence of [gamma33P]ATP by scintillation counting method.
Sequence of RAC-beta serine/threonine-protein kinase (Homo sapiens), P31751 [S474D] (P31751 whole entry S474D): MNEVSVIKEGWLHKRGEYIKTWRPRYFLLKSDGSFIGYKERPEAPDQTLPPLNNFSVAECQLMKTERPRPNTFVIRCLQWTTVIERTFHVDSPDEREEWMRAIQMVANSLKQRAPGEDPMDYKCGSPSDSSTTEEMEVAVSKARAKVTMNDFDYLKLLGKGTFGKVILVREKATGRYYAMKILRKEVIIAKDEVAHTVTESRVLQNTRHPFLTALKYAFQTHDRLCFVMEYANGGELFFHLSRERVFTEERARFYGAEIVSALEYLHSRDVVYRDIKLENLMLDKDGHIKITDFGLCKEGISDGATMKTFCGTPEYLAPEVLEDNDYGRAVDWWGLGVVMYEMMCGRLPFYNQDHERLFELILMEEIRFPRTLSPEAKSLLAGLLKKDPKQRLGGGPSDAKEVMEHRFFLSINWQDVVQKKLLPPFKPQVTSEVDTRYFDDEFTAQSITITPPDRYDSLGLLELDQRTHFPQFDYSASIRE
In series [18] the target is Platelet-derived growth factor receptor beta (Homo sapiens) (UniProt P09619). Put plainly: Inhibition of recombinant human PDGFRbeta (557 to end residues) assessed as residual activity at 10 uM using poly(Glu, Tyr) 4:1 as substrate measured after 40 mins in presence of [gamma33P]ATP by scintillation counting method.
Series [19] deals with Insulin-like growth factor 1 receptor (Homo sapiens) (UniProt P08069). The series is described as follows: Inhibition of recombinant human activated IGF1R (959 to end residues) assessed as residual activity at 10 uM using KKKSPGEYVNIEFG as substrate measured after 40 mins in presence of [gamma33P]ATP by scintillation counting method.
Series [20] has as its target Tyrosine-protein kinase TXK (Homo sapiens) (UniProt P42681). Put plainly: Inhibition of human Txk (256 to end residues) using GEEPLYWSFPAKKK as substrate measured after 40 mins in presence of [gamma33P]ATP by scintillation counting method. Also on record: scale not given: the % may be the effect or the level left.
Series [21] has as its target Serine/threonine-protein kinase 33 (Homo sapiens) (UniProt Q9BYT3). Put plainly: Inhibition of recombinant full-length human STK33 assessed as residual activity at 10 uM using myelin basic protein as substrate measured after 40 mins in presence of [gamma33P]ATP by scintillation counting method.
The test system of series [22] is Ribosomal protein S6 kinase alpha-1 (Rattus norvegicus), Q63531 [S637N,G697A]. The series is described as follows: Inhibition of recombinant full-length rat Rsk1 S637N/G697A mutant assessed as residual activity at 10 uM using KKKNRTLSVA as substrate measured after 40 mins in presence of [gamma33P]ATP by scintillation counting method.
Sequence of Ribosomal protein S6 kinase alpha-1 (Rattus norvegicus), Q63531 [S637N,G697A] (Q63531 whole entry S637N/G697A): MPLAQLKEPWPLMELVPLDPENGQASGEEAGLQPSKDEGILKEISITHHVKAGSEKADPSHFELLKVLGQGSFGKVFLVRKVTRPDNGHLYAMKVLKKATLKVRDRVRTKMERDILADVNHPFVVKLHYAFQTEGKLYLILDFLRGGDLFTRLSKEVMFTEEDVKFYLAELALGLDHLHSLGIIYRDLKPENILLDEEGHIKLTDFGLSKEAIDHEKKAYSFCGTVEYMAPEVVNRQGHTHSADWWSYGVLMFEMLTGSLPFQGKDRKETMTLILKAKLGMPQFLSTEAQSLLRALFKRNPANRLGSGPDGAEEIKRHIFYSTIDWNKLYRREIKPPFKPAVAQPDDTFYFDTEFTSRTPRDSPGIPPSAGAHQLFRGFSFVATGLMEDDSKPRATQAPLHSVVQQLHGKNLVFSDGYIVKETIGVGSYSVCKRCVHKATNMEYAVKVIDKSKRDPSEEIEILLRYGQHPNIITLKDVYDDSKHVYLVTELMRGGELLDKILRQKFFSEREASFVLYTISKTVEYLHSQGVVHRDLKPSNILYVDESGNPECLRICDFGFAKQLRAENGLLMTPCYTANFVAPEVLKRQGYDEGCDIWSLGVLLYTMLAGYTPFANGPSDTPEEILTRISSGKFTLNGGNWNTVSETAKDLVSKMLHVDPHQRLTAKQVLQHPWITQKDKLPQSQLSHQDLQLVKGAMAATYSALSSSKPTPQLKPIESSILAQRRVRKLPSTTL
The target of series [23] is [Pyruvate dehydrogenase (acetyl-transferring)] kinase isozyme 2, mitochondrial (Homo sapiens) (UniProt Q15119). Put plainly: Inhibition of human PDHK2 assessed as residual activity at 10 uM by radiometric method.

Sequence of Macrophage colony-stimulating factor 1 receptor (Homo sapiens) (P07333 whole entry): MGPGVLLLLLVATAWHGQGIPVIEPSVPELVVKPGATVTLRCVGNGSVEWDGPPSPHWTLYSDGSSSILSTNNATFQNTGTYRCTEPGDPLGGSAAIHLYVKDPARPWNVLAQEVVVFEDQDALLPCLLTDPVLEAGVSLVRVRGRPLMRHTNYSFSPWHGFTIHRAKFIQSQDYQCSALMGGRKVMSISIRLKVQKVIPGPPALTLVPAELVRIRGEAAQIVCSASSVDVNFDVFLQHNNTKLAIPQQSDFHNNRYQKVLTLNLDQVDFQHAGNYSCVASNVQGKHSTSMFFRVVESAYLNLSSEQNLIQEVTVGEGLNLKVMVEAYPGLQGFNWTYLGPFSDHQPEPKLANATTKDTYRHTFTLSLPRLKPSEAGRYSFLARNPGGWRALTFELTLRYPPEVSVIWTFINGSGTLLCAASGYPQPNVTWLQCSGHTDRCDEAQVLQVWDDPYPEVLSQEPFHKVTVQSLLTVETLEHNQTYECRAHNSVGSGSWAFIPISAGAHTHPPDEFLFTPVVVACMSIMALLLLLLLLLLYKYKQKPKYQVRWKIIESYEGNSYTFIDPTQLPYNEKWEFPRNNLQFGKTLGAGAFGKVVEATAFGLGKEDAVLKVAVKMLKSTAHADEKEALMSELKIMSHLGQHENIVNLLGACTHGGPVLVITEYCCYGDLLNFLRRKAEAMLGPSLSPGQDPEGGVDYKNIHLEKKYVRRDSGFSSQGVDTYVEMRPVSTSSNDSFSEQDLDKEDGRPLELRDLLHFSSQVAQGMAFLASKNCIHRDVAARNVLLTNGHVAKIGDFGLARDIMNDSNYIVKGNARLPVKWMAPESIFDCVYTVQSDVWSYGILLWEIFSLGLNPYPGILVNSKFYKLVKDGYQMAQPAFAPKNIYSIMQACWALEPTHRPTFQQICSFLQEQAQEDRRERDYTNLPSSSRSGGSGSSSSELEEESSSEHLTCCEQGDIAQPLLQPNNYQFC

With `Cc1cc(C)c(CNc2nc(Cl)nc3c2ncn3C2CCCC2)c(=O)[nH]1`, the Activity was found to be 102% in series [1]; 126% in [2]; 105% in series [3]; 111% in series [4]; 132% in series [6]; 114% in [7]. Besides, the Activity in series [8] is 108%; in [9], “Non-Toxic”; in series [10], 106%; in [11] it was 101%; in [12], 104%; in [13], 92.5%. The Activity is 108% in [14]; 97% in [15]; 104% in series [16]; 114% in [17]; 117% in [18]; 90.5% in series [19]. The Activity in series [20] worked out at 84%; in series [21] it was 86.5%; in series [22], 104%; in series [23], 128%. The outcome in series [5] was Active.
